Laboratory results published in patent US6784201B2, “Benzothiepines having activity as inhibitors of ileal bile acid transport and taurocholate uptake” (G.D. Searle & Company, priority 1994, dated 2004).
Structures can show the parent of a compound that is named as a salt. Where two headings read alike, the source gives them in different places.

Tests used:
H14 cells = experiment: In vitro assay of uptake of [14C]-alanine; type: cell-based, hamster
Description: Baby hamster kidney cells (BHK) transfected with the cDNA of human IBAT (H14 cells) are seeded at 60,000 cells/well in 96 well Top-Count tissue culture plates for assays run within in 24 hours of seeding, 30,000 cells/well for assays run within 48 hours, and 10,000 cells/well for assays run within 72 hours.
On the day of assay, the cell monolayer is gently washed once with 100 μl assay buffer (Dulbecco's Modified Eagle's medium with 4.5 g/L glucose+0.2% (w/v) fatty acid free bovine serum albumin-(FAF)BSA). To each well 50 μl of a two-fold concentrate of test compound in assay buffer is added along with 50 μl of 6 μM [^14C]-taurocholate in assay buffer (final concentration of 3 μM [^14C]-taurocholate). The cell culture plates are incubated 2 hours at 37° C. prior to gently washing each well twice with 100 μl 4° C. Dulbecco's phosphate-buffered saline (PBS) containing 0.2% (w/v) (FAF)BSA. The wells are then gently washed once with 100 μl 4° C. PBS without (FAF)BSA. To each 200 μl of liquid scintillation counting fluid is added, the plates are heat sealed and shaken for 30 minutes at room temperature prior to measuring the amount of radioactivity in each well on a Packard Top-Count instrument.
In Vitro Assay of Compounds that Inhibit Uptake of [^14C3-Alanine
The alanine uptake assay is performed in an identical fashion to the taurocholate assay, with the exception that labeled alanine is substituted for the labeled taurocholate.

human IBAT = target: T1, human IBAT (Homo sapiens, UniProt Q12908); experiment: In vitro assay of IBAT-mediated uptake of [14C]-taurocholate (TC) in H14 cells; type: cell-based
T1 construct: expressed in transfected cells; host or cells: Baby hamster kidney (BHK) cells, clone H14
T1 sequence (Q12908 1-348): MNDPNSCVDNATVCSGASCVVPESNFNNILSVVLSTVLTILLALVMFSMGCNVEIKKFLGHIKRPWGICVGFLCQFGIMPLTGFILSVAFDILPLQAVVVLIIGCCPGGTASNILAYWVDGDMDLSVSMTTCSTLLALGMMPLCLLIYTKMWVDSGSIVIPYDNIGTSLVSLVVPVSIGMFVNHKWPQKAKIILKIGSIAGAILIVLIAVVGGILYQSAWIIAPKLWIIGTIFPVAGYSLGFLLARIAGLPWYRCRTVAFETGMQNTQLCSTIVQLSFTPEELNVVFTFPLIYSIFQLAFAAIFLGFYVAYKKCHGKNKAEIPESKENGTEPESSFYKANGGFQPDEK
Procedure, shortened: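 BHK cells stably expressing human IBAT (H14) were incubated 2 h at 37° C with compound and 3 μM final [14C]-taurocholate in DMEM (4.5 g/L glucose) plus 0.2% fatty acid-free BSA. After cold PBS washes, cell-associated radioactivity was measured by scintillation counting.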

fecal bile acid (FBA) = experiment: Rat gavage assay (fecal bile acid increase); type: in vivo
Description: Male Wister rats (275-300 g) are administered IBAT inhibitors using an oral gavage procedure. Drug or vehicle (0.2% Tween 80 in water) is administered once a day (9:00-10:0 a.m.) for 4 days at varying dosages in a final volume of 2 mL per kilogram of body weight. Total fecal samples are collected during the final 48 hours of the treatment period and analyzed for bile acid content using an enzymatic assay as described below. Compound efficacy is determined by comparison of the increase in fecal bile acid (FBA) concentration in treated rats to the mean FBA concentration of rats in the vehicle group.
Measurement of Fecal Bile Acid Concentration (FBA)
Total fecal output from individually housed hamsters was collected for 24 or 48 hours, dried under a stream of nitrogen, pulverized and weighed. Approximately 0.1 gram was weighed out and extracted into an organic solvent (butanol/water). Following separation and drying, the residue was dissolved in methanol and the amount of bile acid present was measured enzymatically using the 3α-hydroxysteroid steroid dehydrogenase reaction with bile acids to reduce NAD. (Reference: Mashige, F., et al. (1981) Clin. Chem. 27, 1352).

[1] = H14 cells, Table 5, read-out: IC50 uM (In vitro Taurocholate Cell Uptake)
[2] = In Vitro Taurocholate Uptake, Table 10, read-out: Human TC IC50

| melting point [°C] | IC50 (human IBAT; [1]) [µM] | IC50 (human IBAT; [2]) [µM] | Compound | also measured |
| --- | --- | --- | --- | --- |
| 218 to 225 |  |  | CCCCC1(CCCC)CS(=O)(=O)c2ccc(N(C)C)cc2[C@@H](c2cccc(NC(=O)OCCC[N+]34CCN(CC3)CC4)c2)[C@H]1O.[Cl-] |  |
| 246 to 248 |  |  | CCCCC1(CCCC)CS(=O)(=O)c2ccc(N(C)C)cc2[C@@H](c2cccc(NC(=O)Nc3cccc(C[N+]45CCN(CC4)CC5)c3)c2)[C@H]1O.[Cl-] |  |
| 136 |  |  | CCCCC1(CCCC)CS(=O)(=O)c2ccc(N(C)C)cc2[C@@H](c2ccc(OCCCCC[n+]3cccc4ccccc43)cc2)[C@H]1O (as salt: methanesulfonate) [Example 1412, (4R-cis)-1-[5-[4-[3,3-Dibutyl-7-(dimethylamino)-2,3,4,5-tetrahydro-4-hydroxy-1,1-dioxido-1-benzothiepin-5-yl]phenoxy]pentyl]quinolinium, methanesulfonate (Salt)] |  |
| 178 to 182 |  | 0.003 | CCCCC1(CCCC)CS(=O)(=O)c2ccc(N(C)C)cc2[C@@H](c2ccc(OCCCCC[N+](C)(C)CCCCCC[N+](C)(C)CCCCCOc3ccc([C@@H]4c5cc(N(C)C)ccc5S(=O)(=O)CC(CCCC)(CCCC)[C@@H]4O)cc3)cc2)[C@H]1O (relative stereo) [Example 1419, [4R-[4a,5a(4R*,5R*)]]-N,N′-bis[5-[4-[3,3-Dibutyl-7-(dimethylamino)-2,3,4,5-tetrahydro-4-hydroxy-1,1-dioxido-1-benzothiepin-5-yl]phenoxy]pentyl]-N,N,N′N′-tetramethyl-1,6-hexanediaminium dichloride] | Delta (micromoles fecal bile acid per day) (fecal bile acid (FBA); dose 2 mg/kg/day): 28.5 micromoles fecal bile acid per day; Delta (micromoles fecal bile acid per day) (fecal bile acid (FBA); dose .016 mg/kg/day): 5.8 micromoles fecal bile acid per day; Delta (micromoles fecal bile acid per day) (fecal bile acid (FBA); dose .08 mg/kg/day): 10.3 micromoles fecal bile acid per day; Delta (micromoles fecal bile acid per day) (fecal bile acid (FBA); dose .4 mg/kg/day): 13.9 micromoles fecal bile acid per day |
|  | 50 |  | CCCCC1(CC)C=C(c2ccccc2)c2ccccc2S(=O)(=O)C1 (stereo not drawn) [Example 7, 3-Butyl-3-ethyl-5-phenyl-2,3-dihydrobenzothiepine-1,1-dioxide] | inhibition at 100 µM (H14 cells; Mesocricetus auratus): 49.3% |
|  | 7 |  | CCCCC1(CC)CS(=O)(=O)c2ccccc2C(=C2CCCCC2)C1O (stereo not drawn) [Example 10a, 3-Butyl-3-ethyl-4-hydroxy-5-cyclohexylidine--2,3,4,5-tetrahydrobenzothiepine-1,1-dioxide] | % Inhibition of Alanine Uptake @ 100 uM (H14 cells; 100 uM): 77.6% |
|  |  |  | CCCC[C@]1(CC)CS(=O)(=O)c2cc(O)ccc2[C@H](c2ccccc2)[C@@H]1O [Example 27, (3α,4α,5α) 3-Butyl-3-ethyl-4,8-dihydroxy-5-phenyl-2,3,4,5-tetrahydrobenzothiepine-1,1-dioxide] | inhibition at 20 µM (H14 cells; Mesocricetus auratus): 7% |
|  | 8 |  | CCCCC1(CC)CS(=O)(=O)c2cc(OCC)ccc2C(c2ccccc2)C1O (stereo not drawn) [Example 28] | inhibition at 20 µM (H14 cells; Mesocricetus auratus): 31% |
|  | 3 |  | CCCC[C@]1(CC)CS(=O)(=O)c2ccc(NO)cc2[C@H](c2ccccc2)[C@@H]1O [Example 37, (3α,4α,5α) 3-Butyl-3-ethyl-4-hydroxy-7-hydroxyamino-5-phenyl-2,3,4,5-tetrahydrobenzothiepine-1,1-dioxide] | inhibition at 5 µM (H14 cells; Mesocricetus auratus, 5 μM): 0% |
|  | 2 |  | CCCCCCNc1ccc2c(c1)[C@@H](c1ccccc1)[C@@H](O)[C@](CC)(CCCC)CS2(=O)=O [Example 41, (3α,4β,5β) 3-Butyl-3-ethyl-7-(n-hexylamino)-4-hydroxy-5-phenyl-2,3,4,5-tetrahydrobenzothiepine-1,1-dioxide] | inhibition at 20 µM (H14 cells; Mesocricetus auratus): 0% |
|  | 1.5 |  | CCCC[C@]1(CC)CS(=O)(=O)c2ccccc2[C@@H](c2ccc(C(=O)OC)cc2)[C@H]1O [Example 43, (3α,4β,5β) 3-Butyl-5-(4-carbomethoxyphenyl)-3-ethyl-4-hydroxy-2,3,4,5-tetrahydrobenzothiepine-1,1-dioxide] | inhibition at 25 µM (H14 cells; Mesocricetus auratus, 25 μM): 16% |
|  | 2 |  | CCCC[C@]1(CC)CS(=O)(=O)c2ccc(OC)cc2[C@H](c2ccccc2)[C@@H]1O [Example 48, (3α,4α,5α) 3-Butyl-3-ethyl-4-hydroxy-7-methoxy-5-phenyl-2,3,4,5-tetrahydrobenzothiepine-1,1-dioxide] | inhibition at 20 µM (H14 cells; Mesocricetus auratus): 22% |
| 180 to 181 |  |  | CCC1(CC)CS(=O)(=O)c2ccc(NC(=O)OCc3ccccc3)cc2[C@@H](c2ccccc2)[C@H]1O [Example 286] | IC50 (human IBAT; read-out: Human TC IC50): 19 µM |
| 108 to 110 |  | 0.021 | CCCCC1(CCCC)CS(=O)(=O)c2ccc(N(C)C)cc2[C@@H](c2ccc(OCCCCS(N)(=O)=O)cc2)[C@H]1O [Example 1405] |  |
| 118 |  | 0.003 | CCCCC1(CCCC)CS(=O)(=O)c2ccc(N(C)C)cc2[C@@H](c2ccc(OCCCCCC(C(=O)O)C(=O)O)cc2)[C@H]1O [Example 1413, (4S-cis)-[5-[4-[3,3-Dibutyl-7-(dimethylamino)-2,3,4,5-tetrahydro-4-hydroxy-1,1-dioxido-1-benzothiepin-5-yl]phenoxy]pentyl]propanedioic acid] | Delta (micromoles fecal bile acid per day) (fecal bile acid (FBA); dose 5 mg/kg/day): 52.3 micromoles fecal bile acid per day; Delta (micromoles fecal bile acid per day) (fecal bile acid (FBA); dose .04 mg/kg/day): 19 micromoles fecal bile acid per day; Delta (micromoles fecal bile acid per day) (fecal bile acid (FBA); dose .2 mg/kg/day): 42.4 micromoles fecal bile acid per day |
| 193 to 197 |  | < 0.001 | CCCCC1(CCCC)CS(=O)(=O)c2ccc(N(C)C)cc2[C@@H](c2ccc(OCCCCC[N+](C)(C)CC[N+](C)(C)CC)cc2)[C@H]1O [Example 1418, (4R-cis)-N-[5-[4-[3,3-Dibutyl-7-(dimethylamino)-2,3,4,5-tetrahydro-4-hydroxy-1,1-dioxido-1-benzothiepin-5-yl]phenoxy]pentyl]-N′-ethyl-N,N,N′,N′-tetramethyl-1,2-ethanediaminium dichloride] | Delta (micromoles fecal bile acid per day) (fecal bile acid (FBA); dose 2 mg/kg/day): 20.3 micromoles fecal bile acid per day; Delta (micromoles fecal bile acid per day) (fecal bile acid (FBA); dose .016 mg/kg/day): −10 micromoles fecal bile acid per day; Delta (micromoles fecal bile acid per day) (fecal bile acid (FBA); dose .08 mg/kg/day): −4.6 micromoles fecal bile acid per day; Delta (micromoles fecal bile acid per day) (fecal bile acid (FBA); dose .4 mg/kg/day): 29.5 micromoles fecal bile acid per day |
| 67 to 72.5 |  | 0.003 | CCCCC1(CCCC)CS(=O)(=O)c2ccc(N(C)C)cc2[C@@H](c2ccc(OCCCCCNC(=N)N)cc2)[C@H]1O [Example 1422, (4R-cis)-[5-[4-[3,3-Dibutyl-7-(dimethylamino)-2,3,4,5-tetrahydro-4-hydroxy-1,1-dioxido-1-benzothiepin-5-yl]phenoxy]pentyl]guanidine] |  |
| 156 to 159 |  | 0.014 | CCCCC1(CCCC)CS(=O)(=O)c2ccc(N(C)C)cc2[C@@H](c2ccc(OCc3ccc(C(=O)O)cc3)cc2)[C@H]1O [Example 1424, (4R-cis)-4-[[4-[3,3-Dibutyl-7-(dimethylamino)-2,3,4,5-tetrahydro-4-hydroxy-1,1-dioxido-1-benzothiepin-5-yl]phenoxy]methyl]benzoic acid] |  |

| Compound | melting point [°C] | IC50 (human IBAT; [1]) [µM] | IC50 (human IBAT; [2]) [µM] | also measured |
| --- | --- | --- | --- | --- |
| O=S1(=O)CC2(CCCCC2)[C@@H](O)[C@@H](c2ccccc2)c2ccccc21 (relative stereo) [Example 60, cis-4-Hydroxy-5-phenyl-2,3,4,5-tetrahydro spiro(benzothiepine-3,1′-cyclohexane)-1,1-dioxide] |  | 9 |  | inhibition at 100 µM (H14 cells; Mesocricetus auratus): 59% |
